The values below come from patent US20190105367A1, “ANTIMICROBIAL 4-OXOQUINOLIZINES” (Emergent Product Development Gaithersburg Inc., priority 2011, published 2019).

Converted amounts (≈) assume the structure as drawn. Where two headings read alike, the source gives them in different places.

One assay has as its system S. aureus 25923 HS. As to the kind of experiment: MIC, standard panel of Gram-positive and Gram-negative strains (Example 2). Type of assay: cell-based. As to conditions: Staphylococcus aureus, read-out: MIC S. aureus 25923 HS.
For another assay, the system named is E. faecium 19434. Described as above. As to conditions: Enterococcus faecium. Type of assay: cell-based.
The subject of the next assay is S. pneumoniae 1027. As to the kind of experiment: MIC, panel of quinolone-resistant strains (Example 2). As to conditions: Streptococcus pneumoniae, LEV R. Type of assay: cell-based.
Another assay relates to S. pneumoniae 49619. The description is as above. Type of assay: cell-based, Streptococcus pneumoniae.
Another assay deals with E. coli IMP. As to the kind of experiment: microbe, parasite or virus in culture. As to conditions: Escherichia coli, read-out: MIC E. coli IMP.
The subject of a further assay is P. aeruginosa 27853. Briefly: MIC, standard panel of Gram-positive and Gram-negative strains (Example 2). As to conditions: Pseudomonas aeruginosa. Type of assay: cell-based.
For a further assay, the system named is E. coli 25922. The assay is described as above. Type of assay: cell-based. As to conditions: Escherichia coli.
A further assay deals with S. aureus ATCC 25923. As to the kind of experiment: MIC, selected panel of bacterial strains (Example 5). Type of assay: cell-based, Staphylococcus aureus. As to conditions: Staphylococcus aureus, ATCC25923; read-out: MICs against Gram positive bacteria S. aureus ATCC 25923.
The next assay deals with A. baumannii ATCC 19606. Briefly: MIC determination for Acinetobacter strains (Example 3). Type of assay: cell-based, Acinetobacter baumannii. As to conditions: reference strain.
For a further assay, the system named is A. baumannii J2. The assay is described as above. As to conditions: LEV R, CIP R. Type of assay: cell-based, Acinetobacter baumannii.
Assay [1] relates to Acinetobacter spp. H064200250. The description is as above. As to conditions: LEV R, CIP R, MRP R, IMP I. Type of assay: cell-based, Acinetobacter sp.
A further assay concerns A. baumannii A329. Described as above. Type of assay: cell-based, Acinetobacter baumannii. As to conditions: LEV R, CIP R, MRP R, IMP R, AMK R, TET R.
The subject of a further assay is A. baumannii A489. The assay is described as above. As to conditions: LEV R, CIP R, MRP R, IMP R, AMK R, TET R. Type of assay: cell-based, Acinetobacter baumannii.
The test system of a further assay is A. baumannii A387. The assay is described as above. As to conditions: LEV I, CIP R, IPM R, AMK R, TET R. Type of assay: cell-based, Acinetobacter baumannii.
The next assay deals with A. baumannii A390. The assay is described as above. Type of assay: cell-based, Acinetobacter baumannii. As to conditions: LEV R, CIP R, MRP R, IPM I, AMK R, TET I.
The next assay concerns A. baumannii A401. The assay is described as above. Type of assay: cell-based, Acinetobacter baumannii. As to conditions: LEV R, CIP R, AMK R, TET R.
The test system of another assay is A. baumannii A472. The description is as above. Type of assay: cell-based, Acinetobacter baumannii. As to conditions: LEV R, CIP R, MRP I, IMP I, AMK R, TET R.
A further assay relates to A. baumannii A473. The description is as above. As to conditions: LEV R, CIP R, MRP R, IMP R, AMK R, TET R. Type of assay: cell-based, Acinetobacter baumannii.
Assay [2] relates to GN10 Pseudomonas aeruginosa. Briefly: Pre-chequerboard MIC for synergy study (Example 6). Type of assay: cell-based. As to conditions: ATCC 27853, antibiotic susceptible. The source says:
(§1) A chequerboard technique was used to identify possible synergistic or antagonistic interactions between the 4-oxoquinolizines compounds, levofloxacin and polymyxin B. Levofloxacin was included as a control. […] Final dilutions were made in Mueller-Hinton broth, the specific test medium used for MIC determinations according to CLSI guidelines (CLSI. Methods for Dilution Antimicrobial Susceptibility Tests for Bacteria That Grow Aerobically; Approved Standard-Eighth Edition (2009). CLSI Document M07-A8. CLSI, Wayne, Pa. 19087-1898, USA.). The test medium used was a cation-adjusted Mueller-Hinton Broth II (Becton Dickinson UK Ltd., Oxford Science Park, Oxford, UK, OX4 4DQ).
(§2) The compounds 2, 33 and 35, as well as levofloxacin were tested in combination with polymyxin B on the following isolates: GN31 Acinetobacter baumannii—antibiotic susceptible clinical isolate, GN52 Acinetobacter baumannii—levofloxacin resistant clinical isolate, GN56 Acinetobacter baumannii—levofloxacin resistant clinical isolate, GN48 Klebsiella pneumoniae—NCTC 13443—NDM-1-metallo-β-lactamase and GN10 Pseudomonas aeruginosa—ATCC 27853—antibiotic susceptible reference isolate. All isolates are from the collection maintained at Quotient Bioresearch Ltd., Cambridge, UK.
(§3) The MIC values for the compounds and polymyxin B and levofloxacin were determined by broth microdilution following CLSI guidelines, and the MICs of agents in combination were determined as described by Pillai et. al (Pillai S K, Moellering R C Jr, Eliopoulis G M; Antimicrobial Combinations in Antibiotics in Laboratory Medicine 5th Edition (V. Lorian Ed) (2005) p 365-440). Initial MIC results were used to determine the microtiter plate patterns for the chequerboards. A suitable doubling dilution concentration range was selected such that the combination antibiotic range was at least two concentrations above and four concentrations below the MIC for each isolate. A fixed range of 0.008 to 8 mg/L was tested for polymyxin B except in the case of A. baumannii GN31 where a range of 0.004 to 4 mg/L was tested when in combination with the compounds 2, 33 and 35 as well as levofloxacin.

For assay [3], the system named is GN31 Acinetobacter baumannii. Briefly: Pre-chequerboard MIC for synergy study (Example 6). As to conditions: antibiotic susceptible clinical isolate. Type of assay: cell-based.
Text: as §1, §2, §3

Assay [4] relates to GN48 Klebsiella pneumoniae. Briefly: Pre-chequerboard MIC for synergy study (Example 6). Type of assay: cell-based. As to conditions: NCTC 13443, NDM-1.
Text: as §1, §2, §3

The test system of assay [5] is GN52 Acinetobacter baumannii. Briefly: Pre-chequerboard MIC for synergy study (Example 6). Type of assay: cell-based. As to conditions: levofloxacin resistant clinical isolate.
Text: as §1, §2, §3

The subject of assay [6] is GN56 Acinetobacter baumannii. Briefly: Pre-chequerboard MIC for synergy study (Example 6). Type of assay: cell-based. As to conditions: levofloxacin resistant clinical isolate.
Text: as §1, §2, §3

Where [7] appears, read: Streptococcus pneumoniae, 49619, LEV S, read-out: MIC S. pneumoniae 49619.
Where [8] appears, read: Streptococcus pneumoniae, 49619, read-out: MIC S. pneumoniae 49619.

In the case of `Cc1c(-c2cc(F)c(N)cc2F)ccn2c(=O)c(C(=O)O)cc(C3CC3)c12` [Compound 2, 8-(4-amino-2,5-difluorophenyl)-1-cyclopropyl-9-methyl-4-oxo-4H-quinolizine-3-carboxylic acid], the MIC was determined as 0.125 µg/mL (≈ 0.338 µM) with S. aureus 25923 HS, 0.5 µg/mL (≈ 1.35 µM) against E. faecium 19434 and 0.5 µg/mL (≈ 1.35 µM) against S. pneumoniae 1027.
On to `Cc1c(-c2cc(Cl)c(N)c(Cl)c2)ccn2c(=O)c(C(=O)O)cc(C3CC3)c12` [Compound 3, 8-(3,5-dichloro-4-amino-phenyl)-1-cyclopropyl-9-methyl-4-oxo-quinolizine-3-carboxylic acid], for which the values for the MIC against E. faecium 19434, in the assay with S. pneumoniae 49619 (setting [7]) and with E. coli IMP were 0.5 µg/mL (≈ 1.24 µM), 0.5 µg/mL (≈ 1.24 µM) and 0.06 µg/mL (≈ 0.149 µM), respectively.
For `Cc1c(-c2ccc(CN)c(F)c2)ccn2c(=O)c(C(=O)O)cc(C3CC3)c12` [Compound 4, 8-(3-fluoro-4-aminomethyl-phenyl)-1-cyclopropyl-9-methyl-4-oxo-quinolizine-3-carboxylic acid], the MIC is 0.125 µg/mL (≈ 0.341 µM) in the assay on S. aureus 25923 HS, 0.5 µg/mL (≈ 1.36 µM) with P. aeruginosa 27853 and 0.125 µg/mL (≈ 0.341 µM) in the assay with S. pneumoniae 49619 (setting [7]).
In the case of `Cc1c(-c2ccc(CN)cc2)ccn2c(=O)c(C(=O)O)cc(C3CC3)c12` [Compound 5, 8-(4-aminomethyl-phenyl)-1-cyclopropyl-9-methyl-4-oxo-quinolizine-3-carboxylic acid], the MIC in the assay with S. aureus 25923 HS is 0.125 µg/mL (≈ 0.359 µM); in the assay with P. aeruginosa 27853 it was 0.5 µg/mL (≈ 1.44 µM); with S. pneumoniae 49619 (setting [8]), 0.125 µg/mL (≈ 0.359 µM).
For the molecule `Cc1c(-c2ccc(CN)cc2)c(F)cn2c(=O)c(C(=O)O)cc(C3CC3)c12` [Compound 6, 8-(4-aminomethyl-phenyl)-1-cyclopropyl-7-fluoro-9-methyl-4-oxo-quinolizine-3-carboxylic acid], the MIC was 0.25 µg/mL (≈ 0.682 µM) in the assay on S. aureus 25923 HS, 0.125 µg/mL (≈ 0.341 µM) with S. pneumoniae 49619 (setting [8]) and 0.03 µg/mL (≈ 0.0819 µM) with E. coli IMP.
For the molecule `Cc1c(-c2ccc(N)cc2)c(F)cn2c(=O)c(C(=O)O)cc(C3CC3)c12` [Compound 7, 8-(4-amino-phenyl)-1-cyclopropyl-7-fluoro-9-methyl-4-oxo-quinolizine-3-carboxylic acid], the MIC was 0.03 µg/mL (≈ 0.0851 µM) with E. coli 25922 and 0.25 µg/mL (≈ 0.709 µM) with S. pneumoniae 49619 (setting [7]).
With `Cc1c(-c2ccc(N)cc2)ccn2c(=O)c(C(=O)O)cc(C3CC3)c12` [Compound 8, 8-(4-amino-phenyl)-1-cyclopropyl-9-methyl-4-oxo-quinolizine-3-carboxylic acid], the MIC in the assay on S. aureus 25923 HS is 0.25 µg/mL (≈ 0.748 µM); against E. faecium 19434, 0.5 µg/mL (≈ 1.5 µM); in the assay on E. coli 25922, 0.03 µg/mL (≈ 0.0897 µM).
On to `C[C@H]1COc2c(N3CCN(C)CC3)c(F)cc3c(=O)c(C(=O)O)cn1c23` [Levofloxacin, reference compound], for which the MIC in the assay on S. aureus ATCC 25923 stood at 0.125 µg/mL (≈ 0.346 µM).
For the molecule Imipenem/cilastatin, the “MIC A. baumannii ATCC 19606” value in the assay with A. baumannii ATCC 19606 came to 2 µg/mL. In the assay with A. baumannii J2, the “MIC A. baumannii J2” value was 4 µg/mL. For the same molecule, the “MIC Acinetobacter spp. H064200250” value in assay [1] worked out at 16 µg/mL. In the assay on A. baumannii A329, the “MIC A. baumannii A329” value is 128 µg/mL. Moreover, in the assay with A. baumannii A489, the “MIC A. baumannii A489” value was found to be 128 µg/mL. Moreover, the “MIC A. baumannii A387” value in the assay with A. baumannii A387 amounted to 16 µg/mL. In addition, the “MIC A. baumannii A390” value in the assay with A. baumannii A390 came to 16 µg/mL. Besides, the “MIC A baumannii A401” value against A. baumannii A401 stood at 32 µg/mL. In addition, the “MIC A. baumannii A472” value in the assay on A. baumannii A472 came to 16 µg/mL. For the same molecule, the “MIC A. baumannii A473” value against A. baumannii A473 is 32 µg/mL.
Consider Polymyxin B [reference compound], for which the “Pre-chequerboard MIC GN10 Pseudomonas aeruginosa” value in assay [2] is 1 µg/mL. For the same molecule, the “Pre-chequerboard MIC GN31 Acinetobacter baumannii” value in assay [3] is 0.5 µg/mL. The “Pre-chequerboard MIC GN48 Klebsiella pneumoniae” value in assay [4] is 1 µg/mL. For the same molecule, in assay [5], the “Pre-chequerboard MIC GN52 Acinetobacter baumannii” value is 0.5 µg/mL. Moreover, in assay [6], the “Pre-chequerboard MIC GN56 Acinetobacter baumannii” value is 0.5 µg/mL.
